Assay results taken from US5268281A, “Cyclic FR-900520 microbial biotransformation agent” (Merck & Co., Inc., priority 1992, dated 1993).
“Also recorded” adds a separate entry of the source.

Columns and labels:
[1] = Solubility (physical characteristics); format: physicochemical; settings: in methanol
[2] = system: mouse T lymphocytes (Splenic T-cells); assay: T-Cell Proliferation Assay: inhibition of tritiated thymidine uptake in splenic T-cells stimulated with ionomycin + PMA; format: cell-based, mouse (C57Bl/6)
Method: The principle of this assay is to measure the proliferation of mouse T lymphocytes stimulated with the combination of ionomycin plus PMA.
Cells were pelleted by centrifugation at 1500 rpm for 8 minutes. Contaminating red cells were removed by treating the pellet with ammonium chloride lysing buffer (GIBCO) for 2 minutes at 4° C. Cold medium was added and cells were again centrifuged at 1500 rpm for 8 minutes. T lymphocytes were then isolated by separation of the cell suspension on nylon wool columns as follows: Nylon wool columns were prepared by packing approximately 4 grams of washed and dried nylon wool into 20 ml plastic syringes. The columns were sterilized by autoclaving at 250° F. for 30 minutes. Nylon wool columns were wetted with warm (37° C.) culture medium and rinsed with the same medium. Washed spleen cells resuspended in warm medium were slowly applied to the nylon wool. The columns were then incubated in an upright position at 37° C. for 1 hour. Non-adherent T lymphocytes were eluted from the columns with warm culture medium and the cell suspensions were spun as above.
The cell suspension was immediately distributed into 96 well flat-bottom microculture plates (Costar) at 200 μl/well. […] The proliferation of T lymphocytes was assessed by measurement of tritiated thymidine incorporation. After 44 hours of culturing, the cells were pulse-labelled with 2 μCi/well of tritiated thymidine (NEN, Cambridge, Mass.). After another 4 hours of incubation, cultures were harvested on glass fiber filters using a multiple sample harvester. Radioactivity of filter discs corresponding to individual wells was measured by standard liquid scintillation counting methods (Betacounter). Mean counts per minute of replicate wells were calculated and the results expressed as percent inhibition of tritiated thymidine uptake (proliferation) as follows: [formula]

[3] = EPO Publication No. 0184162; cited from earlier work

| Compound | Solubility [1] | reversal of inhibition of T-cell proliferation by addition of IL2 ([2]; 50 units/ml recombinant IL2 at the initiation of culture) | FK-506 immunosuppressant activity / immunosuppressive activity in T-cell proliferation assay ([2]; ionomycin plus PMA, result in words) | effectiveness relative to cyclosporin (reputed) [3] | inhibition at 0.01 µg/mL ([2]; Mus musculus, T-cell, 48 h, read-out: inhibition (Standard)) |
| --- | --- | --- | --- | --- | --- |
| CC[C@@H]1C=C2COC1(O)C[C@H](O)[C@@H](C)[C@@H](/C(C)=C/[C@@H]1CC[C@@H](O)[C@H](OC)C1)OC(=O)[C@@H]1CCCCN1C(=O)C(=O)[C@]1(O)O[C@H]([C@@H](OC)C[C@@H](C)C2)[C@@H](OC)C[C@H]1C [Compound I] | Solubility in methanol | reversed | positive inhibition of T-cell activation; also recorded: positive immunosuppressive activity |  |  |
| C=CC[C@@H]1/C=C(\C)C[C@H](C)C[C@H](OC)[C@H]2O[C@@](O)(C(=O)C(=O)N3CCCC[C@H]3C(=O)O[C@H](/C(C)=C/[C@@H]3CC[C@@H](O)[C@H](OC)C3)[C@H](C)[C@@H](O)CC1=O)[C@H](C)C[C@@H]2OC [FR900506, reference compound] |  |  |  | 100 times | 99% |
